Measured values published in ChEMBL document CHEMBL4316600, “Electrostatic Complementarity as a Fast and Effective Tool to Optimize Binding and Selectivity of Protein-Ligand Complexes” (J Med Chem, 2019).

Molecular target: Dual specificity mitogen-activated protein kinase kinase 1 (Homo sapiens, UniProt Q02750)
Experiment: Inhibition of MEK1 (unknown origin)

Dual specificity mitogen-activated protein kinase kinase 1, sequence (Q02750 whole entry): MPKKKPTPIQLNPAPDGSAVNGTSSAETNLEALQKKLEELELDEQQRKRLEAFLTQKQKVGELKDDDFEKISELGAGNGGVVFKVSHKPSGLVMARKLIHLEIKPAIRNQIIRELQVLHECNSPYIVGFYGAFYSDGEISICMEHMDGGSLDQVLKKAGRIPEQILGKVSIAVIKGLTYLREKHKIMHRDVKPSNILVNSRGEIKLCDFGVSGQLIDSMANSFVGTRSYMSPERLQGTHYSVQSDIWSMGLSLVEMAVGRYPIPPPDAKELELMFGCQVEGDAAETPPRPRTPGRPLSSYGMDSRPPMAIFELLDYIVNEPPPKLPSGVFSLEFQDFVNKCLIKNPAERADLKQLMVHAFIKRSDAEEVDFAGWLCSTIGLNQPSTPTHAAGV

| IC50 [nM] | Compound |
| --- | --- |
| 26 | O=C(NOCCCO)c1ccc(F)c(F)c1Nc1ccc(Cl)cc1F |
| 120 | O=C(NOCCCO)c1ccc(F)c(F)c1Nc1ccc(F)cc1F |
| 2 | O=C(NOCCCO)c1ccc(F)c(F)c1Nc1ccc(I)cc1F |
| 7.7 | O=C(NOCCCO)c1ccc(F)c(F)c1Nc1ccc(Br)cc1F |
